ChEMBL document CHEMBL4330186, “An Isoquinoline Scaffold as a Novel Class of Allosteric HIV-1 Integrase Inhibitors” (ACS Med Chem Lett, 2019)

Legend:
[1] = molecular target: T1, Human immunodeficiency virus type 1 integrase (Human immunodeficiency virus 1, UniProt Q7ZJM1); assay: Inhibition of LEDGF/p75-independant HIV1 His/FLAG-tagged integrase expressed in Escherichia coli BL21(DE3) by HTRF assay
[2] = Stability of the compound at 60 degC for 17 hrs by 1H NMR analysis; assay type: physicochemical
[3] = Drug metabolism in DMSO d6 at 100 degC for 3 days by 1H NMR analysis
[4] = molecular target: T1, Human immunodeficiency virus type 1 integrase; assay: Inhibition of LEDGF/p75 binding to HIV1 His/FLAG-tagged integrase expressed in Escherichia coli BL21(DE3) by HTRF assay
[5] = molecular target: T1, Human immunodeficiency virus type 1 integrase; assay: Induction of HIV1 His/FLAG-tagged integrase hyper-multimerization expressed in Escherichia coli BL21(DE3) by HTRF assay
[6] = tested on: Human immunodeficiency virus 1; assay: Antiviral activity against HIV-1 NL4-3 harboring wild-type integrase infected in human HeLa TZM-bl cells after 48 hrs by p24 ELISA; assay type: functional, organism-based; details: Human immunodeficiency virus 1, NL4-3, 48 h
[7] = tested on: Human immunodeficiency virus 1; assay: Antiviral activity against HIV-1 NL4-3 harboring integrase A128T mutant infected in human HeLa TZM-bl cells after 48 hrs by p24 ELISA; assay type: functional, organism-based; details: Human immunodeficiency virus 1, NL4-3, 48 h
[8] = molecular target: T1, Human immunodeficiency virus type 1 integrase; assay: Inhibition of LEDGF/p75-dependant HIV1 His/FLAG-tagged integrase expressed in Escherichia coli BL21(DE3) by HTRF assay
[9] = molecular target: T1, Human immunodeficiency virus type 1 integrase; assay: Inhibition of biotinylated-TAR-RNA binding to HIV1 His6-tagged integrase expressed in Escherichia coli BL21(DE3) preincubated for 2 hrs followed by RNA addition and measured after 2 hrs by Alpha screen assay
[10] = Drug metabolism assessed as 1-([1,1'-biphenyl]-4-yl)-3-(chroman-6-yl)isoquinoline-4-carbaldehyde formation at 100 degC for 17 days by 1H NMR analysis
[11] = Drug metabolism assessed as 1-([1,1'-biphenyl]-4-yl)-3-(chroman-6-yl)isoquinoline-4-carbaldehyde formation at 100 degC for 17 days by HSQC NMR analysis
[12] = Drug level treated with 2-(1-(biphenyl-4-yl)-3-(chroman-6-yl)isoquinolin-4-yl)-2-tert-butoxyacetic acid at 100 degC for 17 days by HSQC NMR analysis; assay type: physicochemical; details: 408 h
[13] = Drug level treated with 2-(1-(biphenyl-4-yl)-3-(chroman-6-yl)isoquinolin-4-yl)-2-tert-butoxyacetic acid at 100 degC for 17 days by 1H NMR analysis; assay type: physicochemical; details: 408 h

T1 sequence (Q7ZJM1 whole entry): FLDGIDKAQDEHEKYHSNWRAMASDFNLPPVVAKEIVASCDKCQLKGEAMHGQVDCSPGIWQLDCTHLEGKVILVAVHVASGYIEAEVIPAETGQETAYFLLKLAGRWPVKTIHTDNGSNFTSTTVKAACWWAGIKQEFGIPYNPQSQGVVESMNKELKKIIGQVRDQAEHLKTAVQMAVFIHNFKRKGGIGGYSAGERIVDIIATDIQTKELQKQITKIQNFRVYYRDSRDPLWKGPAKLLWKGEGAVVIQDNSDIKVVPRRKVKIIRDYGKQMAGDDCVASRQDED

## CC(C)(C)OC(C(=O)O)c1c(-c2ccc3c(c2)CCCO3)nc(-c2ccccc2)c2ccccc12 (stereo not given)
[1]
  IC50: 4650 nM

## COc1ccc(-c2nc(-c3ccc4c(c3)CCCO4)c(C(OC(C)(C)C)C(=O)O)c3ccccc23)cc1 (stereo not given)
[1]
  IC50: 1000 nM

## CC(C)(C)OC(C(=O)O)c1c(-c2ccc3c(c2)CCCO3)nc(-c2cccc(F)c2)c2ccccc12 (stereo not given)
[1]
  IC50: 12900 nM
[2]
  Stability: Stable
[3]
  Drug metabolism: Metabolite detected

## CC(C)(C)OC(C(=O)O)c1c(-c2ccc3c(c2)CCCO3)nc(-c2ccc(C(F)(F)F)cc2)c2ccccc12 (stereo not given)
[1]
  IC50: 7640 nM

## CC(C)(C)OC(C(=O)O)c1c(-c2ccc3c(c2)CCCO3)nc(-c2cnn(Cc3ccccc3)c2)c2ccccc12 (stereo not given)
[1]
  IC50: 480 nM
[4]
  IC50: 36.7 µM
[5]
  EC50: < 1790 nM
[6]
  EC50: 1100 nM
[7]
  EC50: 0.73 µM
[8]
  IC50: 23.4 µM
[9]
  IC50: 210 nM

## CC(C)(C)OC(C(=O)O)c1c(-c2ccc3c(c2)CCCO3)nc(-c2ccc(-c3ccccc3)cc2)c2ccccc12 (stereo not given)
[1]
  IC50: 830 nM
[2]
  Stability: Stable
[10]
  Drug metabolism: Metabolite detected
[11]
  Drug metabolism: Metabolite detected

## COc1cccc(-c2nc(-c3ccc4c(c3)CCCO4)c(C(OC(C)(C)C)C(=O)O)c3ccccc23)c1 (stereo not given)
[1]
  IC50: 1140 nM
[2]
  Stability: Stable
[3]
  Drug metabolism: Metabolite detected

## COc1cccc(-c2nc(-c3ccccc3)c(C(OC(C)(C)C)C(=O)O)c3ccccc23)c1 (stereo not given)
[1]
  IC50: 13800 nM

## O=Cc1c(-c2ccc3c(c2)CCCO3)nc(-c2ccc(-c3ccccc3)cc2)c2ccccc12
[12]
  Drug metabolism: Metabolite_Detected
[13]
  Drug metabolism: Metabolite_Detected

## CC(C)(C)OC(C(=O)O)c1c(-c2ccc3c(c2)CCCO3)nc(-c2ccco2)c2ccccc12 (stereo not given)
[1]
  IC50: 3550 nM

## CC(C)(C)OC(C(=O)O)c1c(-c2ccc3c(c2)CCCO3)nc(-c2ccc3c(c2)CCCO3)c2ccccc12 (stereo not given)
[1]
  IC50: 1220 nM

## CC(C)(C)OC(C(=O)O)c1c(-c2ccccc2)nc(-c2ccccc2)c2ccccc12 (stereo not given)
[1]
  IC50: 10100 nM

## CC(C)(C)OC(C(=O)O)c1c(-c2ccc3c(c2)CCCO3)nc(-c2nc3cc(Cl)ccc3[nH]2)c2ccccc12 (stereo not given)
[1]
  IC50: 810 nM

## Cc1nc2ccc(Br)cc2c(-c2ccc(Cl)cc2)c1C(OC(C)(C)C)C(=O)O (stereo not given)
[1]
  IC50: 120 nM
[4]
  IC50: 0.15 µM
[5]
  EC50: 146 nM
[6]
  EC50: 630 nM
[7]
  EC50: 12.2 µM
[8]
  IC50: 0.15 µM
[9]
  IC50: 136 nM

## CC(C)(C)OC(C(=O)O)c1c(-c2ccc3c(c2)CCCO3)nc(-c2cccc(C(=O)O)c2)c2ccccc12 (stereo not given)
[1]
  IC50: 12300 nM
